“Also recorded” adds a separate entry of the source. Where two headings read alike, the source gives them in different places. Values belong to the compound of their own block, whether it stands above or below them.
Experiments:
[1] = test system: MCF-7 human breast cancer line; assay: PET tracer uptake in multicellular tumor spheroids (MTS) after anticancer treatment; type: cell-based; conditions: MCF-7 MTSs; 1 and 10µM; 3 and 5 days of treatment; normalized to control
Method: Cells of the MCF-7 human breast cancer line (European Collection of Cell Culture) were grown in MEM/EBSS supplemented with 10% FCS, 1mM sodium pyruvate, 2mM L-glutamine, 1% non-essential amino acid and 5% penicillin (Tamro).
After 1 h the medium was renewed.
In each experimental set-up four MTSs in one 24-well plate were referred to as one group. The groups included control (without treatment agent) and five different treatments with same concentration.
The response to each anticancer treatment was evaluated by measurement of the tracer uptake and total volume of the MTSs after 3 and 5 days of treatment.
Images of MTSs were recorded using a Nikon Colorpix 4500 camera mounted on an inverted Zeiss microscope before Tracer incubation. The acquired data were analyzed by SASDM.
To monitor the effect of each anti-cancer treatment five established PET-tracers; [1-^11C]Acetate, [^11C]Choline, [^11C]Methionine, [^18F]3'-Deoxy-3'-fluorthymifine and 2-[^18F]Fluor-2-deoxyglucose were utilized.
The aggregates were incubated for 30 min (for ^18F-labled tracers) and 50 min (for ^11C-labled tracers) at 37°C with 0.5 ml medium per well containing 3MBq Tracer, and then washed 3x5 min (for ^18F-labled tracers) and 3x3 min (for ^11C-labled tracers) with medium (1 ml/well).
The Tracer-uptake in MTS was defined as: Total uptake = (Act conc.(Bq/ml)of MTS)/(Act conc.(Bq/ml)of reference) [formula]
Each experiment set-up was repeated three times.

MTSs of MCF-7 cell line = assay: Basic [18F]FDG uptake experiments in MTS (competition, inhibition, insulin); type: cell-based, human
Method: (§1) • a. Cells of the MCF-7 human breast cancer line (European Collection of Cell Culture) were grown in MEM/EBSS supplemented with 10% FCS, 1mM sodium pyruvate, 2mM L-glutamine, 1% non-essential amino acid and 5% penicillin (Tamro). […] Cells of the BT474 human breast cancer line (American Type Culture Collection) were grown in DMEM supplemented with 10% FCS, 1mM sodium pyruvate, and 5% penicillin (Tamro).
(§2) The MTSs were incubated for 50 min at 37°C with 0.5 ml medium per well containing 3MBq [^18F]FDG[21], and then washed 3x5 min with medium (1 ml/well).
To ensure the physiological validity of [^18F]FDG uptake in MTS, a number of basic experiments were performed: • Temperature dependence of [^18F]FDG uptake. The [^18F]FDG uptake experiments were performed with two different incubation temperatures: 4°C and 37°C. • Competition Experiment. Glucose concentration in the growing culture medium was 5 mM. To perform the competition experiment, unlabeled extra glucose was diluted in the growing culture medium with a concentration of 0mM (for the control group), 5mM, 10mM and 20mM. Culture medium was replaced by glucose/[^18F]FDG-containing culture medium. After 50 min incubation the [^18F]FDG uptake was measured. • Inhibition Experiment. The MTSs were pre-incubated with four different concentrations of an inhibitor of glucose transport, Cytochalasin-B; 0µM (for control group), 10µM, 25µM and 50µM followed by 50 min [^18F]FDG incubation. • Insulin-mediated [^18F]FDG uptake. The MTSs were pre-incubated with or without (control group) 10µM insulin followed by 50 min [^18F]FDG incubation.
It is noticeable that the basic experiments were performed only on MTSs of MCF-7 cell line. In each experimental set-up six MTSs in one 24-well plate were referred to as one group and the experiments were repeated three times.

[2] = test system: MCF-7 human breast cancer line; assay: [18F]FDG uptake per viable volume of MTS after anticancer treatment (MCF-7); type: cell-based; conditions: MCF-7 MTSs; for [^18F]FDG uptake per viable volume: highest dose of 1 µM
Method: as §1, §2
For the MCF-7 cell line, each group included 6 replicates and the experiments were repeated twice.
The response to each anticancer treatment was evaluated by measurement of the [^18F]FDG uptake and viable volume of the MTSs after 2 and 3 days of treatment.

[3] = test system: BT474 human breast cancer line; assay: [18F]FDG uptake per viable volume of MTS after anticancer treatment (BT474); conditions: BT474 MTSs

SMILES: Cc1ccc(NC(=O)c2ccc(CN3CCN(C)CC3)cc2)cc1Nc1nccc(-c2cccnc2)n1 [Imatinib]
CHO-uptake [1]: decrease
FLT-uptake [1]: increase

SMILES: CC(=O)O[C@@]12CO[C@@H]1C[C@H](O)[C@@]1(C)C(=O)[C@H](O)C3=C(C)[C@@H](OC(=O)[C@H](O)[C@@H](NC(=O)OC(C)(C)C)c4ccccc4)C[C@@](O)([C@@H](OC(=O)c4ccccc4)[C@H]21)C3(C)C [Docetaxel]
CHO-uptake [1]: increase
FLT-uptake [1]: decreased
MET-uptake [1]: increase

IC50 (MTSs of MCF-7 cell line; Homo sapiens, MCF7, 50 min, unlabeled extra glucose 0, 5, 10, 20mM added to medium (5 mM glucose), 50 min incubation, read-out: concentration inducing a 50% reduction of [^18F]FDG uptake compared to control): 10 mM
SMILES: OC[C@H]1OC(O)[C@H](O)[C@@H](O)[C@@H]1O (stereo partly drawn) [glucose]
[^18F]FDG uptake in MTSs (MTSs of MCF-7 cell line; increasing concentration of glucose added to incubation medium): gradually decreased

SMILES: C=C1[C@@H](C)[C@H]2[C@H](Cc3ccccc3)NC(=O)[C@]23OC(=O)/C=C/[C@H](O)CCC[C@@H](C)C/C=C/[C@H]3[C@@H]1O [Cytochalasin B]
[^18F]FDG uptake (MTSs of MCF-7 cell line; glucose-transport inhibitor added to incubation medium, 10-50µM): significantly decreased
IC50 (MTSs of MCF-7 cell line; pre-incubation 0, 10, 25, 50µM, then 50 min [18F]FDG incubation, read-out: 50% inhibition of [^18F]FDG uptake): 0.012 mM

SMILES: CC(=O)O[C@H]1C(=O)[C@@]2(C)[C@H]([C@H](OC(=O)c3ccccc3)[C@]3(O)C[C@H](OC(=O)[C@H](O)[C@@H](NC(=O)c4ccccc4)c4ccccc4)C(C)=C1C3(C)C)[C@]1(OC(C)=O)CO[C@@H]1C[C@@H]2O [Paclitaxel]
ACE-uptake [1]: approximately as non-treated MTSs
FDG-uptake [1]: approximately as non-treated MTSs
FLT-uptake [1]: significant decrease; also recorded: decreased
[^18F]FDG uptake per viable volume (glucose transport) ([2]; 10nM, 100nM, 1µM, 2 and 3 days, overall): more moderate
glucose transport per viable volume ([3]; lowest dose and shorter treatment time): reduced

SMILES: CC/C(=C(\c1ccccc1)c1ccc(OCCN(C)C)cc1)c1ccccc1 [Tamoxifen]
ACE-uptake [1]: increase
FLT-uptake [1]: decreased
MET-uptake [1]: decrease
[^18F]FDG uptake per viable volume [2]: reduced

SMILES: COc1cccc2c1C(=O)c1c(O)c3c(c(O)c1C2=O)C[C@@](O)(C(=O)CO)C[C@@H]3O[C@H]1C[C@H](N)[C@H](O)[C@H](C)O1 [Doxorubicin]
ACE-uptake [1]: less decrease
FDG-uptake [1]: less decrease
FLT-uptake [1]: considerable FLT-reduction; also recorded: decreased
reduction of [^18F]FDG uptake per viable volume ([2]; at the highest dose): 25%
[^18F]FDG uptake per viable volume [2]: decreased
[^18F]FDG uptake per viable volume ([3]; at the highest dose): reduced; also recorded: decreased
